# In ChEMBL document CHEMBL5223113, “Several non-salt and solid thienopyridine derivatives as oral P2Y12 receptor inhibitors with good stability” (Bioorg Med Chem Lett, 2022):
# Key:
# [1] = Toxicity in rat assessed as bleeding time by tail cutting assay; settings: in vivo
# Rattus norvegicus [2] = assay: Anti-platelet activity against ADP-induced platelet aggregation in rat assessed as inhibition of platelet aggregation at 1 mg/kg relative to control; assay type: functional
# [3] = Toxicity in rat assessed as bleeding time by measuring ratio of ED200 to ED50 ratio by tail cutting assay; settings: in vivo
# Rattus norvegicus [4] = assay: Inhibition of thrombosis in anteriovenous bypassed rat at 0.3 mg/kg relative to control; assay type: functional
# Rattus norvegicus [5] = assay: Inhibition of thrombosis in anteriovenous bypassed rat at 3 mg/kg relative to control; assay type: functional
# Rattus norvegicus [6] = assay: Anti-platelet activity against ADP-induced platelet aggregation in rat assessed as inhibition of platelet aggregation at 0.25 mg/kg relative to control; assay type: functional
# Rattus norvegicus [7] = species on record: Rattus norvegicus; assay: Inhibition of thrombosis in anteriovenous bypassed rat; assay type: functional
# Rattus norvegicus [8] = assay: Anti-platelet activity against ADP-induced platelet aggregation in rat assessed as inhibition of platelet aggregation at 0.5 mg/kg relative to control; assay type: functional
# Rattus norvegicus [9] = assay: Inhibition of thrombosis in anteriovenous bypassed rat at 0.1 mg/kg relative to control; settings: read-out: INH
# [10] = Toxicity in beagle dog assessed as atrophy of hepatocyte at 1000 mg/kg oral gavage single dose; assay type: organism-based, Canis lupus familiaris; settings: hepatocytes
# [11] = Toxicity in beagle dog assessed as vomiting at 1000 mg/kg oral gavage single dose; assay type: organism-based, Canis lupus familiaris; settings: in vivo
# Rattus norvegicus [12] = assay: Inhibition of thrombosis in anteriovenous bypassed rat at 1 mg/kg relative to control; assay type: functional
# [13] = Toxicity in beagle dog assessed as abnormality in blood and biochemical index at 2000 mg/kg oral gavage observed for 14 days; assay type: organism-based, Canis lupus familiaris; settings: in vivo, 336 h, time 14 day
# [14] = Stability in human plasma assessed as compound remaining measured at 150 mins relative to control; assay type: ADME, cell-free; settings: read-out: Stability
# [15] = Toxicity in beagle dog assessed as ALT level at 100 to 300 mg/kg/day oral gavage observed for 14 days; assay type: organism-based, Canis lupus familiaris; settings: in vivo, 336 h, dose 100-300 mg/kg/day, time 14 day
# [16] = Stability in human plasma assessed as compound remaining measured at 30 mins relative to control; assay type: ADME, cell-free; settings: read-out: Stability
# [17] = Toxicity in beagle dog assessed as mydriasis at 100 mg/kg/day oral gavage observed for 14 days; assay type: organism-based, Canis lupus familiaris; settings: in vivo, 336 h, time 14 day
# Rattus norvegicus [18] = assay: Inhibition of thrombosis in anteriovenous bypassed rat at 30 mg/kg relative to control; assay type: functional
# [19] = Stability in human plasma assessed as compound remaining measured at 45 mins relative to control; assay type: ADME, cell-free; settings: read-out: Stability
# [20] = Stability in human plasma assessed as compound remaining measured at 120 mins relative to control; assay type: ADME, cell-free; settings: read-out: Stability
# [21] = Stability in human plasma assessed as compound remaining measured at 360 mins relative to control; assay type: ADME, cell-free; settings: read-out: Stability
# [22] = Stability in human plasma assessed as compound remaining measured at 20 mins relative to control; assay type: ADME, cell-free; settings: read-out: Stability
# [23] = Toxicity in beagle dog assessed as electrocardiogram at 100 to 300 mg/kg/day oral gavage observed for 14 days; assay type: organism-based, Canis lupus familiaris; settings: in vivo, 336 h, dose 100-300 mg/kg/day, time 14 day
# [24] = Stability in human plasma assessed as compound remaining measured at 300 mins relative to control; assay type: ADME, cell-free; settings: read-out: Stability
# [25] = Toxicity in beagle dog assessed as dilated pupil at 100 to 300 mg/kg/day oral gavage observed for 14 days; assay type: organism-based, Canis lupus familiaris; settings: in vivo, 336 h, dose 100-300 mg/kg/day, time 14 day
# [26] = Stability in human plasma assessed as compound remaining measured at 180 mins relative to control; assay type: ADME, cell-free; settings: read-out: Stability
# [27] = Toxicity in beagle dog assessed as death at 2000 mg/kg oral gavage observed for 14 days; assay type: organism-based, Canis lupus familiaris; settings: in vivo, 336 h, time 14 day
# [28] = Toxicity in beagle dog assessed as decrease in platelet aggregation at 100 mg/kg/day oral gavage observed for 14 days; assay type: organism-based, Canis lupus familiaris; settings: in vivo, 336 h, time 14 day
# [29] = Toxicity in beagle dog assessed as increase in ALP at 100 mg/kg/day oral gavage observed for 14 days; assay type: organism-based, Canis lupus familiaris; settings: in vivo, 336 h, time 14 day
# Rattus norvegicus [30] = assay: Inhibition of thrombosis in anteriovenous bypassed rat at 10 mg/kg relative to control; assay type: functional
# [31] = Stability in human plasma assessed as compound remaining measured at 90 mins relative to control; assay type: ADME, cell-free; settings: read-out: Stability
# [32] = Toxicity in beagle dog assessed as emesis at 100 mg/kg/day oral gavage observed for 14 days; assay type: organism-based, Canis lupus familiaris; settings: in vivo, 336 h, time 14 day
# [33] = Stability in human plasma assessed as compound remaining measured at 5 mins relative to control; assay type: ADME, cell-free; settings: read-out: Stability
# [34] = Toxicity in beagle dog assessed as ALP level at 100 to 300 mg/kg/day oral gavage observed for 14 days; assay type: organism-based, Canis lupus familiaris; settings: in vivo, 336 h, dose 100-300 mg/kg/day, time 14 day
# [35] = Toxicity in beagle dog assessed as increase in liver weight at 100 mg/kg/day oral gavage observed for 14 days; assay type: organism-based, Canis lupus familiaris; settings: in vivo, 336 h, time 14 day
# Rattus norvegicus [36] = assay: Anti-platelet activity against ADP-induced platelet aggregation in rat assessed as inhibition of platelet aggregation at 1.5 mg/kg relative to control; assay type: functional
# [37] = Stability in human plasma assessed as compound remaining measured at 60 mins relative to control; assay type: ADME, cell-free; settings: read-out: Stability
# [38] = Toxicity in beagle dog assessed as swelling of hepatocyte at 100 mg/kg/day oral gavage observed for 14 days; assay type: organism-based, Canis lupus familiaris; settings: hepatocytes, 336 h, time 14 day
# Rattus norvegicus [39] = assay: Anti-platelet activity against ADP-induced platelet aggregation in rat assessed as inhibition of platelet aggregation at 0.75 mg/kg relative to control; assay type: functional
# Rattus norvegicus [40] = assay: Anti-platelet activity against ADP-induced platelet aggregation in rat assessed as inhibition of platelet aggregation at 3 mg/kg relative to control; assay type: functional
# [41] = Toxicity in beagle dog assessed as abnormality in blood and biochemical index at 100 to 300 mg/kg/day oral gavage observed for 14 days; assay type: organism-based, Canis lupus familiaris; settings: in vivo, 336 h, dose 100-300 mg/kg/day, time 14 day
# [42] = Stability in human plasma assessed as compound remaining measured at 240 mins relative to control; assay type: ADME, cell-free; settings: read-out: Stability
# [43] = Toxicity in beagle dog assessed as electrocardiogram at 2000 mg/kg oral gavage observed for 14 days; assay type: organism-based, Canis lupus familiaris; settings: in vivo, 336 h, time 14 day
# [44] = Stability in human plasma assessed as compound remaining measured at 10 mins relative to control; assay type: ADME, cell-free; settings: read-out: Stability
# [45] = Toxicity in beagle dog assessed as vomiting at 100 to 300 mg/kg/day oral gavage observed for 14 days; assay type: organism-based, Canis lupus familiaris; settings: in vivo, 336 h, dose 100-300 mg/kg/day, time 14 day
# Rattus norvegicus [46] = species on record: Rattus norvegicus; assay: animal or person; settings: Platelet, read-out: INH
# Description: Anti-platelet activity against ADP-induced platelet aggregation in rat assessed as inhibition of platelet aggregation at 5 mg/kg relative to control
# Rattus norvegicus [47] = species on record: Rattus norvegicus; assay: animal or person; settings: Platelet, read-out: INH; remark: listed apart in the source
# Description: Anti-platelet activity against ADP-induced platelet aggregation in rat assessed as inhibition of platelet aggregation at 10 mg/kg relative to control
# Rattus norvegicus [48] = species on record: Rattus norvegicus; assay: animal or person; settings: Platelet, read-out: INH; remark: listed apart in the source
# Description: Anti-platelet activity against ADP-induced platelet aggregation in rat assessed as inhibition of platelet aggregation at 2.5 mg/kg relative to control
structure (smiles),measurement,setting,value
CC(=O)Oc1cc2c(s1)CCN(C(C(=O)C1CC1)c1ccccc1F)C2 (stereo not drawn) [PRASUGREL],ED200,[1],0.513 mg/kg
same,inhibition in vivo at 1 mg/kg,Rattus norvegicus [2],13.3%
same,selectivity ratio,[3],0.838
same,inhibition in vivo at 0.3 mg/kg,Rattus norvegicus [4],9%
same,inhibition in vivo at 3 mg/kg,Rattus norvegicus [5],70.2%
same,inhibition in vivo at 0.25 mg/kg,Rattus norvegicus [6],13.3%
same,ED50,Rattus norvegicus [7],11.8 mg/kg
same,inhibition in vivo at 0.5 mg/kg,Rattus norvegicus [8],37.8%
same,inhibition in vivo at 0.1 mg/kg,Rattus norvegicus [9],6%
same,Activity,[10],Toxic
same,Activity,[11],Toxic
same,inhibition in vivo at 1 mg/kg,Rattus norvegicus [12],35.7%
C/C=C/C=C/C(=O)Oc1cc2c(s1)CCN([C@H](C(=O)OC)c1ccccc1Cl)C2,Activity,[13],Non-Toxic
same,remaining at 2.5 h,[14],46.7%
same,ED200,[1],0.822 mg/kg
same,Activity,[15],Non-Toxic
same,remaining at 0.5 h,[16],86.6%
same,selectivity ratio,[3],0.52
same,Activity,[17],Toxic
same,inhibition in vivo at 30 mg/kg,Rattus norvegicus [18],68.6%
same,remaining at 0.75 h,[19],83.9%
same,inhibition in vivo at 3 mg/kg,Rattus norvegicus [5],40.3%
same,remaining at 2 h,[20],62.9%
same,remaining at 6 h,[21],14.8%
same,remaining at 20 min,[22],97.1%
same,Activity,[23],Non-Toxic
same,remaining at 5 h,[24],20.9%
same,Activity,[25],Non-Toxic
same,remaining at 3 h,[26],43%
same,Activity,[27],Non-Toxic
same,Activity,[28],Toxic
same,Activity,[29],Toxic
same,inhibition in vivo at 10 mg/kg,Rattus norvegicus [30],52.1%
same,remaining at 1.5 h,[31],63.8%
same,Activity,[32],Toxic
same,remaining at 5 min,[33],93.5%
same,ED50,Rattus norvegicus [7],11.8 mg/kg
same,Activity,[34],Non-Toxic
same,Activity,[35],Toxic
same,inhibition in vivo at 1.5 mg/kg,Rattus norvegicus [36],50.8%
same,remaining at 1 h,[37],76.8%
same,Activity,[38],Toxic
same,inhibition in vivo at 0.75 mg/kg,Rattus norvegicus [39],7%
same,inhibition in vivo at 3 mg/kg,Rattus norvegicus [40],85.8%
same,Activity,[41],Non-Toxic
same,remaining at 4 h,[42],30%
same,Activity,[43],Non-Toxic
same,remaining at 10 min,[44],92.8%
same,Activity,[45],Non-Toxic
same,inhibition in vivo at 1 mg/kg,Rattus norvegicus [12],36.5%
COC(=O)[C@H](c1ccccc1Cl)N1CCc2sccc2C1 [CLOPIDOGREL],inhibition in vivo at 5 mg/kg,Rattus norvegicus [46],59.7%
same,remaining at 0.5 h,[16],104%
same,inhibition in vivo at 30 mg/kg,Rattus norvegicus [18],72.6%
same,remaining at 0.75 h,[19],101%
same,remaining at 2 h,[20],96%
same,remaining at 20 min,[22],100%
same,inhibition in vivo at 10 mg/kg,Rattus norvegicus [30],41.5%
same,remaining at 1.5 h,[31],94%
same,inhibition in vivo at 10 mg/kg,Rattus norvegicus [47],90.5%
same,remaining at 5 min,[33],106%
same,remaining at 1 h,[37],100%
same,inhibition in vivo at 2.5 mg/kg,Rattus norvegicus [48],26.5%
same,remaining at 10 min,[44],102%
